Like-named read-outs stand apart in the source and are kept apart here.
How the values were obtained:
[1] = Humidity chamber hygroscopicity study (salt solution chambers, visual inspection); type: physicochemical; details: ambient temperature
[2] = Moisture-sorption analysis (Hiden IGAsorp); type: physicochemical; details: 25° C.
Protocol: Moisture-sorption experiments were performed using a Hiden IGAsorp Moisture Sorption instrument on KX2-391.MSA obtained in accordance with the process of the present invention (Example 4). First, the sample was dried at 0% Relative Humidity (RH) and 25° C. until an equilibrium weight was reached or for a maximum of four hours. The sample was then subjected to an isothermal (25° C.) adsorption scan from 10 to 90% RH in steps of 10%. The sample was allowed to equilibrate to an asymptotic weight at each point for a maximum of four hours. Following adsorption, a desorption scan from 85 to 0% RH (at 25° C.) was run in steps of −10% again allowing a maximum of four hours for equilibration to an asymptotic weight. The sample was then dried for one hour at 80° C. and the resulting solid analyzed by XRPD. […] FIG. 10 depicts percent change of water content as a function of relative humidity for KX2-391.MSA, Form A.
Moisture-sorption experiments were performed using a Hiden IGAsorp Moisture Sorption Instrument on KX2-391.2HCl obtained in accordance with the process of the present invention (Example 3). First, the sample was dried at 0% Relative Humidity (RH) and 25° C. until an equilibrium weight was reached or for a maximum of four hours. The sample was then subjected to an isothermal (25° C.) adsorption scan from 10 to 90% RH in steps of 10%. The sample was allowed to equilibrate to an asymptotic weight at each point for a maximum of four hours. Following adsorption, a desorption scan from 85 to 0% RH (at 25° C.) was run in steps of −10% again allowing a maximum of four hours for equilibration to an asymptotic weight. The sample was then dried for one hour at 80° C. and the resulting solid analyzed by XRPD.

[3] = Solubility in DI water and pH 2.0 phosphate buffer; type: physicochemical; details: for solubility: thermodynamic from solid
Protocol: The table below summarizes additional characterization data for the fumaric and maleate KX2-391.MSA salts and compares it to free base, bis-HCl, and MSA salts described above. The results in the table below were obtained using the procedures described above in Examples 5 (XRPD), 6 (DSC), 7 (TGA), and 8 (moisture-sorption).
Solubility experiments were also performed using pH 2.0 phosphate buffer and DI water pH 6.9 and KX2-391.MSA, Form A. Each vial was filled with approximately 50 mg of KX2-391.MSA, Form A and 100 μL aliquots of the corresponding solvent was added until complete dissolution was observed, followed by stirring at room temperature for one and five days. The solids obtained were isolated by filtration, dried under vacuum at room temperature and analyzed by HPLC. The initial HPLC purity of KX2-391.MSA, Form A was 99.4 (% area). The solubility by HPLC of KX2-391.MSA, Form A in phosphate buffer/RT was >500 mg/mL and HPLC purity was measured to be 99.4. The solubility by HPLC of KX2-391.MSA, Form A in DI H2O/RT was >500 mg/mL and HPLC purity was measured to be 99.4.

[4] = Humidity chamber hygroscopicity study (salt solution chambers, visual inspection); type: physicochemical; details: ambient temperature
Protocol: Further characterization of the hygroscopicity of the mesylate salt was performed using several humidity chambers to cover a range of humidity from 75, 88 to 95% RH. The 75, 88, and 95% RH chambers were prepared with NaCl, BaCl2.2H2O, and Na2HPO4.12 H2O respectively and were equilibrated for 48 hours prior to introducing the samples. Samples were placed into aluminum pans and monitored by visual inspection for up to five days. Table 3 summarizes the observations at 0, 3, 5, 24, 48, 72, 96 and 120 hour time points.
Moisture sorption studies conducted at ambient temperature utilizing salt solution humidity chambers were conducted to evaluate solid stability by visual inspection.

Src protein substrates [5] = assay: Src substrate phosphorylation in human colon cancer cells (HT29); type: cell-based
Description: (§1) Compounds of the invention or salts thereof may be Src signaling inhibitors that bind in the Src peptide substrate site. The activity of various compounds of the invention and salts has been studied in c-Src ([…], constitutively active and transforming) transformed NIH3T3 cells and in human colon cancer cells (HT29).

Src protein substrates [6] = assay: Src substrate phosphorylation in c-Src transformed NIH3T3 cells; type: cell-based; details: c-Src (527F, constitutively active and transforming) transformed NIH3T3 cells
Description: as §1

[7] = % RH 90.0102, end of adsorption
[8] = % RH 90.0102, start of desorption
[9] = % RH −0.0430, end of desorption
[10] = % RH −0.0500, start of adsorption scan

Cl.Cl.O=C(Cc1ccc(-c2ccc(OCCN3CCOCC3)cc2)cn1)NCc1ccccc1 [KX2-391.2HCl, 2-(5-(4-(2-morpholinoethoxy)phenyl)pyridine-2-yl)-N-benzylacetamide dihydrochloride]
Results (visual inspection) ([1]; 32% RH, 7 days, dihydrochloride): remain stable | Results (visual inspection) ([1]; 32% RH, 7 days, listed as KX2-391•2HCl, dihydrochloride): Solid | Results (visual inspection) ([1]; 42% RH, dihydrochloride): Deliquescence | Results (visual inspection) ([1]; 51% RH): Deliquescence | inflection point of moisture sorption (suggesting deliquescence) [2]: 40-50 % RH | hygroscopicity by moisture sorption analysis ([2]; adsorption scan 10 to 90% RH): significantly hygroscopic | water absorbed at 60% RH ([2]; 60% RH): 16.7 wt % | Moisture Sorption Wt % Water @ 90% RH [2]: 27.0 wt % | Mole ration (water:sample) ([2]; % RH 4.9957, desorption): 1.3860 | Wt % water ([2]; % RH 4.9957, desorption): 4.7176 Wt % | Mole ration (water:sample) ([2]; % RH 10.0011, adsorption): 2.0998 | Wt % water ([2]; % RH 10.0011, adsorption): 6.9776 Wt % | Mole ration (water:sample) ([2]; % RH 15.0035, desorption): 2.0512 | Wt % water ([2]; % RH 15.0035, desorption): 6.8271 Wt % | Mole ration (water:sample) ([2]; % RH 20.0071, adsorption): 2.4810 | Wt % water ([2]; % RH 20.0071, adsorption): 8.1412 Wt % | Mole ration (water:sample) ([2]; % RH 25.0029, desorption): 4.0655 | Wt % water ([2]; % RH 25.0029, desorption): 12.6812 Wt % | Mole ration (water:sample) ([2]; % RH 29.9953, adsorption): 2.7855 | Wt % water ([2]; % RH 29.9953, adsorption): 9.0498 Wt % | Mole ration (water:sample) ([2]; % RH 35.0089, desorption): 4.3683 | Wt % water ([2]; % RH 35.0089, desorption): 13.4981 Wt % | Mole ration (water:sample) ([2]; % RH 39.9936, adsorption): 3.1317 | Wt % water ([2]; % RH 39.9936, adsorption): 10.0615 Wt % | Mole ration (water:sample) ([2]; % RH 45.0063, desorption): 4.6309 | Wt % water ([2]; % RH 45.0063, desorption): 14.1945 Wt % | Mole ration (water:sample) ([2]; % RH 50.0083, adsorption): 4.7853 | Wt % water ([2]; % RH 50.0083, adsorption): 14.5986 Wt % | Mole ration (water:sample) ([2]; % RH 54.9876, desorption): 4.8578 | Wt % water ([2]; % RH 54.9876, desorption): 14.7870 Wt % | Mole ration (water:sample) ([2]; % RH 59.9940, adsorption): 5.6228 | Wt % water ([2]; % RH 59.9940, adsorption): 16.7261 Wt % | Mole ration (water:sample) ([2]; % RH 64.9989, desorption): 5.0957 | Wt % water ([2]; % RH 64.9989, desorption): 15.3997 Wt % | Mole ration (water:sample) ([2]; % RH 70.0044, adsorption): 6.6487 | Wt % water ([2]; % RH 70.0044, adsorption): 19.1922 Wt % | Mole ration (water:sample) ([2]; % RH 75.0016, desorption): 5.5767 | Wt % water ([2]; % RH 75.0016, desorption): 16.6119 Wt % | Mole ration (water:sample) ([2]; % RH 80.0002, adsorption): 7.4350 | Wt % water ([2]; % RH 80.0002, adsorption): 20.9856 Wt % | Mole ration (water:sample) ([2]; % RH 84.9979, desorption): 8.3910 | Wt % water ([2]; % RH 84.9979, desorption): 23.0617 Wt % | Mole ration (water:sample) [2, 7]: 10.3345 | Wt % water [2, 7]: 26.9630 Wt % | Mole ration (water:sample) [2, 8]: 10.3345 | Wt % water [2, 8]: 26.9630 Wt % | Mole ration (water:sample) [2, 9]: 0.3038 | Wt % water [2, 9]: 1.0737 Wt % | Mole ration (water:sample) [2, 10]: 1.7493 | Wt % water [2, 10]: 5.8814 Wt % | pH of solubility sample [3]: 2.1 | pH of solubility sample ([3]; pH 2): (1.9) | solubility ([3]; pH 2, aqueous buffer): > 500 mg/mL | solubility ([3]; pH 6.9, water): > 500 mg/mL | Time to deliquescence ([4]; 42% RH): <3 h | Results (visual inspection) ([4]; 42% RH, dihydrochloride): deliquescence was observed within three hours | Time to deliquescence ([4]; 51% RH, dihydrochloride): ≤ 12 h | Time to deliquescence ([4]; 51% RH, listed as KX2-391•2HCl, dihydrochloride): <12 h | Results (visual inspection) ([4]; 95% RH): Deliquescence | Time to deliquescence ([4]; 95% RH, dihydrochloride): ≤ 12 h | Time to deliquescence ([4]; 95% RH, listed as KX2-391•2HCl, dihydrochloride): <12 h | deliquescence humidity at ambient temperature [4]: 32-42 % RH

O=C(Cc1ccc(-c2ccc(OCCN3CCOCC3)cc2)cn1)NCc1ccccc1 [KX2-391, 2-(5-(4-(2-morpholinoethoxy)phenyl)pyridin-2-yl)-N-benzylacetamide]
phosphorylation level of known Src protein substrates (Src protein substrates [5]): reduce the phosphorylation level of known Src protein substrates in a dose-dependent fashion | phosphorylation level of known Src protein substrates (Src protein substrates [6]): reduce the phosphorylation level of known Src protein substrates in a dose-dependent fashion | Moisture Sorption Wt % Water @ 90% RH ([2]; listed as Free base): 3.7 wt %

From patent publication US10323001B2, “Compositions for modulating a kinase cascade and methods of use thereof” (Athenex, Inc., priority 2006, dated 2019)
